# Laboratory results as given in publication PMC11314731 (Polymers, 2024).
# Like-named read-outs stand apart in the source and are kept apart here.
# What was measured:
# [1] = cited from earlier work
# Mdr1a P-gp = test system: Mdr1a P-gp; design: method as in PMID 9050899; settings: cited from earlier work
# Caco-2 cells = assay: In vitro cellular uptake of Rh123 in Caco-2 cells; settings: Rh123 20 µM, 5 h incubation, 37 °C; TPGS 33 µM, CyA 4 µM
SMILES,LogP [1],pKa [1],"increase in plasma AUC of PTX, Mdr1a knockout vs wild-type mice (Mdr1a P-gp; IV administration)","increase in plasma AUC of PTX, Mdr1a knockout vs wild-type mice (Mdr1a P-gp; oral administration)",fluorescence intensity (cellular uptake of Rh123) (Caco-2 cells)
"CC(=O)O[C@H]1C(=O)[C@@]2(C)[C@H]([C@H](OC(=O)c3ccccc3)[C@]3(O)C[C@H](OC(=O)[C@H](O)[C@@H](NC(=O)c4ccccc4)c4ccccc4)C(C)=C1C3(C)C)[C@]1(OC(C)=O)CO[C@@H]1C[C@@H]2O [PTX, Paclitaxel]",3.66,10.36,twofold increase,more than sixfold increase,
"COC(=O)c1ccccc1-c1c2ccc(=N)cc-2oc2cc(N)ccc12 [free Rh123, rhodamine 123]",,,,,very low fluorescence intensity
